The values below come from PubChem BioAssay AID1918952 (Molecular Pharmacology Branch, DTP, NCI, 2023).

The subject of the test is LG0703-F948-PDC complex spheroid viability. As to the kind of experiment: Anticancer human tumor LG0703-F948-PDC patient-derived lung adenocarcinoma cell line growth inhibition. As to conditions: for viability, T/C: stronger effect = lower value. An outline of the steps:
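Complex spheroids of tumor cells with HUVEC and human MSCs, exposed to iadademstat combined with other agents. Each agent tested in half-log steps from near clinical Cmax (else 10 microM top), DMSO ≤0.25%.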

Setting [1] is: curve of first compound, second compound 0.1 µM.
Setting [2] is: curve of first compound, second compound 0.316 µM.
Where [3] appears, read: curve of first compound, second compound 1 µM.
Setting [4] is: curve of first compound, second compound 3.16 µM.
Setting [5] is: curve of first compound, second compound 10 µM.

One may read the IC50 as the concentration that gives 50% inhibition. By viability, T/C is commonly meant the ratio of treated to control.

The structures appear in SMILES notation. “And” between values parts separate entries of the source, which are not always exact repeats. Equal values may be shown once.
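Further: spheroids exposed to agents for seven days before readout.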
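Wherever viability, T/C is given: 100% = DMSO vehicle control wells as normalization base.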

Turning to `COc1cc(C2c3cc4c(cc3C(OC3OC5COC(C)OC5C(O)C3O)C3COC(=O)C23)OCO4)cc(OC)c1O` (stereo not drawn) + NC1CC1c1ccc(-c2cccc(O)c2)cc1, the IC50 under setting [1] is above 3 µM; the IC50 under setting [2] was above 3 µM; the IC50 under setting [3] was above 3 µM; the IC50 under setting [4] is above 3 µM; the IC50 under setting [5] was above 3 µM. In addition, the viability, T/C reads like this: (second compound 0.1 µM, first compound 0.00949 µM) 117%; (second compound 0.1 µM, first compound 0.03 µM) 126%; (second compound 0.1 µM, first compound 0.0949 µM) 101%; (second compound 0.1 µM, first compound 0.3 µM) 98.5%; (second compound 0.1 µM, first compound 0.949 µM) 89.5%; (second compound 0.1 µM, first compound 3 µM) 66.9%. In addition, the viability, T/C runs as follows: (second compound 0.316 µM, first compound 0.00949 µM) 117%; (second compound 0.316 µM, first compound 0.03 µM) 111%; (second compound 0.316 µM, first compound 0.0949 µM) 106%; (second compound 0.316 µM, first compound 0.3 µM) 88.4%; (second compound 0.316 µM, first compound 0.949 µM) 92.2%; (second compound 0.316 µM, first compound 3 µM) 75.4%. The viability, T/C is 104% (second compound 1 µM, first compound 0.00949 µM); 115% (second compound 1 µM, first compound 0.03 µM); 105% (second compound 1 µM, first compound 0.0949 µM); 95.9% (second compound 1 µM, first compound 0.3 µM); 105% (second compound 1 µM, first compound 0.949 µM); 77.8% (second compound 1 µM, first compound 3 µM). Moreover, the viability, T/C (second compound 3.16 µM, first compound 0.00949 µM) is 102%; the viability, T/C (second compound 3.16 µM, first compound 0.03 µM) is 121%; the viability, T/C (second compound 3.16 µM, first compound 0.0949 µM) was 117%; the viability, T/C (second compound 3.16 µM, first compound 0.3 µM) was 100%; the viability, T/C (second compound 3.16 µM, first compound 0.949 µM) was 88.1%; the viability, T/C (second compound 3.16 µM, first compound 3 µM) is 86.2%. Besides, the viability, T/C (second compound 10 µM, first compound 0.00949 µM) was 104%; the viability, T/C (second compound 10 µM, first compound 0.03 µM) was 116%; the viability, T/C (second compound 10 µM, first compound 0.0949 µM) is 99.9%; the viability, T/C (second compound 10 µM, first compound 0.3 µM) was 103%; the viability, T/C (second compound 10 µM, first compound 0.949 µM) was 81.6%; the viability, T/C (second compound 10 µM, first compound 3 µM) was 66.8%.
As for `CC(C)CC(NC(=O)CNC(=O)c1cc(Cl)ccc1Cl)B1OC(=O)CC(CC(=O)O)(C(=O)O)O1` (stereo not drawn) + NC1CCC(NC2CC2c2ccccc2)CC1, the IC50 amounted to 0.00454 µM under setting [1]; 0.00494 µM under setting [2]; 0.00429 µM under setting [3]; 0.00305 µM under setting [4]; 0.00198 µM under setting [5]. Besides, the viability, T/C was 118% (second compound 0.1 µM, first compound 0.000316 µM); 95.6% (second compound 0.1 µM, first compound 0.001 µM); 66.7% (second compound 0.1 µM, first compound 0.00316 µM); 19.8% (second compound 0.1 µM, first compound 0.01 µM); 2.45% (second compound 0.1 µM, first compound 0.0316 µM); 0.73% (second compound 0.1 µM, first compound 0.1 µM). Besides, the viability, T/C runs as follows: (second compound 0.316 µM, first compound 0.000316 µM) 104%; (second compound 0.316 µM, first compound 0.001 µM) 102%; (second compound 0.316 µM, first compound 0.00316 µM) 69.4%; (second compound 0.316 µM, first compound 0.01 µM) 19%; (second compound 0.316 µM, first compound 0.0316 µM) 2.48%; (second compound 0.316 µM, first compound 0.1 µM) 0.54%. Also, the viability, T/C reads like this: (second compound 1 µM, first compound 0.000316 µM) 118%; (second compound 1 µM, first compound 0.001 µM) 115%; (second compound 1 µM, first compound 0.00316 µM) 60.8%; (second compound 1 µM, first compound 0.01 µM) 17%; (second compound 1 µM, first compound 0.0316 µM) 2.68%; (second compound 1 µM, first compound 0.1 µM) 1.21%. Also, the viability, T/C (second compound 3.16 µM, first compound 0.000316 µM) was 112%; the viability, T/C (second compound 3.16 µM, first compound 0.001 µM) was 127%; the viability, T/C (second compound 3.16 µM, first compound 0.00316 µM) was 47.6%; the viability, T/C (second compound 3.16 µM, first compound 0.01 µM) is 13.8%; the viability, T/C (second compound 3.16 µM, first compound 0.0316 µM) is 2.43%; the viability, T/C (second compound 3.16 µM, first compound 0.1 µM) is 0.36%. The viability, T/C is 109% (second compound 10 µM, first compound 0.000316 µM); 97.7% (second compound 10 µM, first compound 0.001 µM); 17.4% (second compound 10 µM, first compound 0.00316 µM); 6.56% (second compound 10 µM, first compound 0.01 µM); 0.78% (second compound 10 µM, first compound 0.0316 µM); 0.48% (second compound 10 µM, first compound 0.1 µM).
`CC1(C)CCC(CN2CCN(c3ccc(C(=O)NS(=O)(=O)c4ccc(NCC5CCOCC5)c([N+](=O)[O-])c4)c(Oc4cnc5[nH]ccc5c4)c3)CC2)=C(c2ccc(Cl)cc2)C1`: the viability, T/C reads like this: (compound 0.0316 µM) 87% and 94.2%; (compound 0.1 µM) 98.5% and 93.8%; (compound 0.316 µM) 91.7% and 89.7%; (compound 1 µM) 96.8% and 84.2%; (compound 3.16 µM) 36.5% and 50.3%; (compound 10 µM) 3.78% and 4.3%. In addition, the IC50 (curve of compound) is 2.41 µM and 3.2 µM.
For the compound `NC1CCC(NC2CC2c2ccccc2)CC1` (stereo not drawn), under “compound 0.316 µM”, the viability, T/C is 99.4% and 101% and 110%. In addition, where the note is “compound alone, run of 02/15/2022”, the IC50 is above 10 µM.
In the case of `CCc1c2c(nc3ccc(O)cc13)-c1cc3c(c(=O)n1C2)COC(=O)[C@]3(O)CC`, the viability, T/C is 46.8% and 51.2% (compound 0.000949 µM); 28.6% and 31% (compound 0.003 µM); 21.1% and 17.5% (compound 0.00949 µM); 12.4% and 14.2% (compound 0.03 µM); 9.01% and 6.61% (compound 0.0949 µM); 4.04% and 3.45% (compound 0.3 µM). For the same compound, the 50% inhibitory concentration (IC50) (curve of compound) was < 0.000949 µM and 0.000999 µM.
With `Nc1ccccc1NC(=O)c1ccc(CNC(=O)OCc2cccnc2)cc1`, the viability, T/C was 100% and 75.3% (compound 0.00949 µM); 101% and 76.5% (compound 0.03 µM); 68.7% and 63.2% (compound 0.0949 µM); 21.4% and 17.3% (compound 0.3 µM); 1.46% and 1.45% (compound 0.949 µM); 0.48% and 0.84% (compound 3 µM). For the same compound, the IC50 (curve of compound) was 0.151 µM and 0.132 µM.
